Assay results as given in US20230103791A1 (GLAXOSMITHKLINE INTELLECTUAL PROPERTY DEVELOPMENT LIMITED, priority 2019, published 2023).

Biological target: T1, human Nav1.8 (Homo sapiens, UniProt Q9Y5Y9)
T1 construct: expressed in transfected cells; host or cells: HEK293 (HEK293-Nav1.8)
Assay: Nav1.8 sodium channels assay, QPatch 48 HTX electrophysiology in HEK293-Nav1.8 cells
Assay type: cell-based
Details: at least one set of experimental runs; read-out: average pIC50 value against Nav1.8 (converted)
In short: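 IC50 came from 6-8 point curves of P2 current amplitude, normalized to baseline and a positive reference, and corrected for run-down using vehicle-only wells. Automated patch clamp used HEK293-Nav1.8 (with Navβ1 and TREK1) at pH 7.4 outside and CsF-based solution inside. An 8 s inactivating step at −46 mV preceded the 0 mV test pulse, repeated at 0.07 Hz.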

T1 sequence (Q9Y5Y9 whole entry): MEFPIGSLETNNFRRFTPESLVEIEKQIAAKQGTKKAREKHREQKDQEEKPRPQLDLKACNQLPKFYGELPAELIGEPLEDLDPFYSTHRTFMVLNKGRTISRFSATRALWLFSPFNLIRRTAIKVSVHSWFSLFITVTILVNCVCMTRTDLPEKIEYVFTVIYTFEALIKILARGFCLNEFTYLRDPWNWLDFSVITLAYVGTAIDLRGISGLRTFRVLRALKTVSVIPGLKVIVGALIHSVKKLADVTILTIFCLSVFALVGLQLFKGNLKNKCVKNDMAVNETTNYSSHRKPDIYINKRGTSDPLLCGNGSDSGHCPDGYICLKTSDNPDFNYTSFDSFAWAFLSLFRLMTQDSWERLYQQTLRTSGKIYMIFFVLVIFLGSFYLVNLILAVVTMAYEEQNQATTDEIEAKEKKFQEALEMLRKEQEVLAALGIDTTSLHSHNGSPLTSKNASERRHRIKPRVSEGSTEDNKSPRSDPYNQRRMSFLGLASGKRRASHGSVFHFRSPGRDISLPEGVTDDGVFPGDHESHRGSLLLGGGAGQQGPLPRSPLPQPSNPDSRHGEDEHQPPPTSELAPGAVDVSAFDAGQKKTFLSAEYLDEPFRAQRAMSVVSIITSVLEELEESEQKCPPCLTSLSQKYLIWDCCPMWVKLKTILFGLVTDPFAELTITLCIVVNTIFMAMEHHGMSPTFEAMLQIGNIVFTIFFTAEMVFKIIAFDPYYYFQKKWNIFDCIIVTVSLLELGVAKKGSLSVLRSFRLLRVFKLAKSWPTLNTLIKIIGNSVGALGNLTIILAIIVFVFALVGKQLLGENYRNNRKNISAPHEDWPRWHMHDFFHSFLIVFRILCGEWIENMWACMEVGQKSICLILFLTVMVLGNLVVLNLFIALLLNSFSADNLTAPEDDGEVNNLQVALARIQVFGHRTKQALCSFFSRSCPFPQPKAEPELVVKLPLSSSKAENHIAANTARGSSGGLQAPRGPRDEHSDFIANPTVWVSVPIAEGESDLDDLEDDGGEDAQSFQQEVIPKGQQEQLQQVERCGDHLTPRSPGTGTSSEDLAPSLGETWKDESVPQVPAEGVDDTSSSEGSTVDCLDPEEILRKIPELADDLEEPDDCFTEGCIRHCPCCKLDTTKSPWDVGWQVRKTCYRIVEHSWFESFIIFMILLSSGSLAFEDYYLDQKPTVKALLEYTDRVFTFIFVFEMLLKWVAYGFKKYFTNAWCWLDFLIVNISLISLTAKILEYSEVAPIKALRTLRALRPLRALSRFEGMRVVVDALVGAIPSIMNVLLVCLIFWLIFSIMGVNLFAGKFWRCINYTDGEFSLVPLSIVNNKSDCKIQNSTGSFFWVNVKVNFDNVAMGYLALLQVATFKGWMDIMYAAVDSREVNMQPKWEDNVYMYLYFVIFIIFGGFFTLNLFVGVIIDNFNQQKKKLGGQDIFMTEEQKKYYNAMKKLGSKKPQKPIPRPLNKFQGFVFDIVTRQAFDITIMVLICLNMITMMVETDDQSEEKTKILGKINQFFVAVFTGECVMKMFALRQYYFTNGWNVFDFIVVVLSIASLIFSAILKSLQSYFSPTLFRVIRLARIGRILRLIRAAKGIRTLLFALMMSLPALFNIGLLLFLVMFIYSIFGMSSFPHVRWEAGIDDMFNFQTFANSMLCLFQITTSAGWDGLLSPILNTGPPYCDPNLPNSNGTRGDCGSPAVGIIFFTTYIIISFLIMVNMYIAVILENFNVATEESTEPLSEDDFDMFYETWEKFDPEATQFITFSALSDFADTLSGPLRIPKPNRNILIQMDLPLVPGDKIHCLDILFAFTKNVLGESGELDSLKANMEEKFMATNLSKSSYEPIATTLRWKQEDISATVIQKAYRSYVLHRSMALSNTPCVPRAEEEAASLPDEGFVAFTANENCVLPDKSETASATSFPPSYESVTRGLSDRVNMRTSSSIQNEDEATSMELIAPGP
T1 sequence (Q07699 19-218 partner): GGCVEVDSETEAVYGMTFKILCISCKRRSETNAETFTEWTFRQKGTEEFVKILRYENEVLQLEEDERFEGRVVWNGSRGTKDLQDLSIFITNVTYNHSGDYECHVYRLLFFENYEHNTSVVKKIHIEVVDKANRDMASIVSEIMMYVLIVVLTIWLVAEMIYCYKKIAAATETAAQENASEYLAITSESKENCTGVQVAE

SMILES	IC50 [µM]
CCOc1ccc(N2CN(c3ccc(=O)[nH]c3C)C(=O)c3ccc(C(F)(F)F)cc32)cc1 [Example 156, 1-(4-ethoxyphenyl)-3-(2-methyl-6-oxo-1,6-dihydropyridin-3-yl)-7-(trifluoromethyl)-2,3-dihydroquinazolin-4(1H)-one]	0.126 to 0.631
Cc1[nH]c(=O)ccc1N1CN(c2ccc(F)cc2C(C)C)c2cc(F)c(F)cc2C1=O [Example 159, 6,7-difluoro-1-(4-fluoro-2-isopropylphenyl)-3-(2-methyl-6-oxo-1,6-dihydropyridin-3-yl)-2,3-dihydroquinazolin-4(1H)-one]	≤ 0.1
Cc1[nH]c(=O)ccc1N1CN([C@H]2CCCC[C@H]2C)c2cc(C(F)(F)F)ccc2C1=O [Example 160, 3-(2-methyl-6-oxo-1,6-dihydropyridin-3-yl)-1-((1S,2R)-2-methylcyclohexyl)-7-(trifluoromethyl)-2,3-dihydroquinazolin-4(1H)-one]	≤ 0.1
Cc1[nH]c(=O)ccc1N1CN(c2ccc(F)cc2C(C)C)c2cc(C#N)ccc2C1=O [Example 161, 1-(4-fluoro-2-isopropylphenyl)-3-(2-methyl-6-oxo-1,6-dihydropyridin-3-yl)-4-oxo-1,2,3,4-tetra-hydroquinazoline-7-carbonitrile]	≤ 0.1
Cc1[nH]c(=O)ccc1N1CN([C@@H]2CCCC[C@@H]2C)c2cc(C(F)(F)F)ccc2C1=O [Example 162, 3-(2-methyl-6-oxo-1,6-dihydropyridin-3-yl)-1-((1R,2S)-2-methylcyclohexyl)-7-(trifluoromethyl)-2,3-dihydroquinazolin-4(1H)-one]	≤ 0.1
COc1nc2c(cc1F)C(=O)N(c1ccc(=O)[nH]c1C)CN2c1ccc(F)cc1C [Example 165, 6-fluoro-1-(4-fluoro-2-methylphenyl)-7-methoxy-3-(2-methyl-6-oxo-1,6-dihydropyridin-3-yl)-2,3-dihydropyrido[2,3-d]pyrimidin-4(1H)-one]	0.126 to 0.631
Cc1cc(F)ccc1N1CN(c2ccc(=O)[nH]c2C)C(=O)c2cc(C#N)c(C(F)(F)F)cc21 [Example 166, 1-(4-fluoro-2-methylphenyl)-3-(2-methyl-6-oxo-1,6-dihydropyridin-3-yl)-4-oxo-7-(trifluoromethyl)-1,2,3,4-tetra-hydroquinazoline-6-carbonitrile]	≤ 0.1
Cc1cc(OC(F)(F)F)ccc1N1CN(c2ccc(=O)[nH]c2C)C(=O)c2cc(Cl)c(C#N)nc21 [Example 170, 6-chloro-1-(2-methyl-4-(trifluoromethoxy)phenyl)-3-(2-methyl-6-oxo-1,6-dihydropyridin-3-yl)-4-oxo-1,2,3,4-tetra-hydropyrido[2,3-d]pyrimidine-7-carbonitrile]	≤ 0.1
Cc1cc(F)ccc1N1CN(c2ccc(=O)[nH]c2C)C(=O)c2cc(Cl)c(C#N)nc21 [Example 171, 6-chloro-1-(4-fluoro-2-methylphenyl)-3-(2-methyl-6-oxo-1,6-dihydropyridin-3-yl)-4-oxo-1,2,3,4-tetra-hydropyrido[2,3-d]pyrimidine-7-carbonitrile]	≤ 0.1
Cc1cc(OC(F)(F)F)ccc1N1CN(c2ccc(=O)[nH]c2C)C(=O)c2cc(Cl)c(C#N)cc21 [Example 172, 6-chloro-1-(2-methyl-4-(trifluoromethoxy)phenyl)-3-(2-methyl-6-oxo-1,6-dihydropyridin-3-yl)-4-oxo-1,2,3,4-tetra-hydroquinazoline-7-carbonitrile]	≤ 0.1
Cc1cc(F)ccc1N1CN(c2cnc(=O)[nH]c2C)C(=O)c2cc(Cl)c(C#N)cc21 [Example 173, 6-chloro-1-(4-fluoro-2-methylphenyl)-3-(6-methyl-2-oxo-1,2-dihydropyrimidin-5-yl)-4-oxo-1,2,3,4-tetra-hydroquinazoline-7-carbonitrile]	≤ 0.1
Cc1[nH]c(=O)ccc1N1CN(c2cccc(C(F)(F)F)c2C)c2ncc(C(F)(F)F)cc2C1=O [Example 174, 1-(2-methyl-3-(trifluoromethyl)phenyl)-3-(2-methyl-6-oxo-1,6-dihydropyridin-3-yl)-6-(trifluoromethyl)-2,3-dihydropyrido[2,3-d]pyrimidin-4(1H)-one]	0.126 to 0.631
Cc1[nH]c(=O)ccc1N1CN(c2cccc(Cl)c2C)c2ncc(C(F)(F)F)cc2C1=O [Example 175, 1-(3-chloro-2-methylphenyl)-3-(2-methyl-6-oxo-1,6-dihydropyridin-3-yl)-6-(trifluoromethyl)-2,3-dihydropyrido[2,3-d]pyrimidin-4(1H)-one]	0.126 to 0.631
Cc1[nH]c(=O)ccc1N1CN(c2ccc(F)c(F)c2C)c2ncc(C(F)(F)F)cc2C1=O [Example 177, 1-(3,4-difluoro-2-methylphenyl)-3-(2-methyl-6-oxo-1,6-dihydropyridin-3-yl)-6-(trifluoromethyl)-2,3-dihydropyrido[2,3-d]pyrimidin-4(1H)-one]	≤ 0.1

Other lines, results leading:

IC50 [µM]	SMILES
0.126 to 0.631	Cc1cc(F)ccc1N1CN(c2ccc(=O)[nH]c2C)C(=O)c2ccc(C(F)(F)F)nc21 [Example 149, 1-(4-fluoro-2-methylphenyl)-3-(2-methyl-6-oxo-1,6-dihydropyridin-3-yl)-7-(trifluoromethyl)-2,3-dihydropyrido[2,3-d]pyrimidin-4(1H)-one]
≤ 0.1	CCc1[nH]c(=O)ccc1N1CN(c2ccc(F)cc2C)c2cc(C(F)(F)F)ccc2C1=O [Example 150, 3-(2-ethyl-6-oxo-1,6-dihydropyridin-3-yl)-1-(4-fluoro-2-methylphenyl)-7-(trifluoromethyl)-2,3-dihydroquinazolin-4(1H)-one]
0.794 to 7.94	Cc1cc(F)ccc1N1CN(c2ccc(=O)[nH]c2Cl)C(=O)c2ccc(C(F)(F)F)cc21 [Example 151, 3-(2-chloro-6-oxo-1,6-dihydropyridin-3-yl)-1-(4-fluoro-2-methylphenyl)-7-(trifluoromethyl)-2,3-dihydroquinazolin-4(1H)-one]
≤ 0.1	Cc1cc(F)ccc1N1CN(c2ccc(=O)[nH]c2C)C(=O)c2ccc(Br)cc21 [Example 152, 7-bromo-1-(4-fluoro-2-methylphenyl)-3-(2-methyl-6-oxo-1,6-dihydropyridin-3-yl)-2,3-dihydroquinazolin-4(1H)-one]
≤ 0.1	Cc1cc(F)ccc1N1CN(c2ccc(=O)[nH]c2C)C(=O)c2ccc(C#N)cc21 [Example 153, 1-(4-fluoro-2-methylphenyl)-3-(2-methyl-6-oxo-1,6-dihydropyridin-3-yl)-4-oxo-1,2,3,4-tetra-hydroquinazoline-7-carbonitrile]
0.126 to 0.631	Cc1cc(F)ccc1N1CN(c2ccc(=O)[nH]c2C#N)C(=O)c2ccc(C(F)(F)F)cc21 [Example 154, 3-(1-(4-fluoro-2-methylphenyl)-4-oxo-7-(trifluoromethyl)-1,4-dihydroquinazolin-3(2H)-yl)-6-oxo-1,6-dihydropyridine-2-carbonitrile]
0.126 to 0.631	Cc1[nH]c(=O)ccc1N1CN(c2ccc(F)cc2F)c2cc(C(F)(F)F)ccc2C1=O [Example 155, 1-(2,4-difluorophenyl)-3-(2-methyl-6-oxo-1,6-dihydropyridin-3-yl)-7-(trifluoromethyl)-2,3-dihydroquinazolin-4(1H)-one]
0.126 to 0.631	Cc1cc(F)ccc1N1CN(c2cc[nH]c(=O)c2)C(=O)c2ccc(C(F)(F)F)cc21 [Example 157, 1-(4-fluoro-2-methylphenyl)-3-(2-oxo-1,2-dihydropyridin-4-yl)-7-(trifluoromethyl)-2,3-dihydroquinazolin-4(1H)-one]
≤ 0.1	Cc1cc(F)ccc1N1CN(c2ccc(=O)[nH]c2C)C(=O)c2cc(F)c(F)cc21 [Example 158, 6,7-difluoro-1-(4-fluoro-2-methylphenyl)-3-(2-methyl-6-oxo-1,6-dihydropyridin-3-yl)-2,3-dihydroquinazolin-4(1H)-one]
0.794 to 7.94	CC(=O)Nc1[nH]c(=O)ccc1N1CN(c2ccc(F)cc2C)c2ccc(C(F)(F)F)cc2C1=O [Example 163, N-(3-(1-(4-fluoro-2-methylphenyl)-4-oxo-6-(trifluoromethyl)-1,4-dihydroquinazolin-3(2H)-yl)-6-oxo-1,6-dihydropyridin-2-yl)acetamide]
0.126 to 0.631	Cc1cc(F)ccc1N1CN(c2ccc(=O)[nH]c2Br)C(=O)c2cc(C(F)(F)F)ccc21 [Example 164, 3-(2-bromo-6-oxo-1,6-dihydropyridin-3-yl)-1-(4-fluoro-2-methylphenyl)-6-(trifluoromethyl)-2,3-dihydroquinazolin-4(1H)-one]
≤ 0.1	Cc1cc(F)ccc1N1CN(c2ccc(=O)[nH]c2C)C(=O)c2cc(Cl)c(OC(F)F)cc21 [Example 167, 6-chloro-7-(difluoromethoxy)-1-(4-fluoro-2-methylphenyl)-3-(2-methyl-6-oxo-1,6-dihydropyridin-3-yl)-2,3-dihydroquinazolin-4(1H)-one]
≤ 0.1	Cc1cc(F)ccc1N1CN(c2ccc(=O)[nH]c2C)C(=O)c2cc(Cl)c(C(F)F)cc21 [Example 168, 6-chloro-7-(difluoromethyl)-1-(4-fluoro-2-methylphenyl)-3-(2-methyl-6-oxo-1,6-dihydropyridin-3-yl)-2,3-dihydroquinazolin-4(1H)-one]
0.126 to 0.631	Cc1cc(F)ccc1N1CN(c2c[nH]c(=O)nc2N)C(=O)c2cc(C(F)(F)F)ccc21 [Example 169, 3-(4-amino-2-oxo-1,2-dihydropyrimidin-5-yl)-1-(4-fluoro-2-methylphenyl)-6-(trifluoromethyl)-2,3-dihydroquinazolin-4(1H)-one]
≤ 0.1	CCc1cc(F)ccc1N1CN(c2ccc(=O)[nH]c2C)C(=O)c2cc(C(F)(F)F)cnc21 [Example 176, 1-(2-ethyl-4-fluorophenyl)-3-(2-methyl-6-oxo-1,6-dihydropyridin-3-yl)-6-(trifluoromethyl)-2,3-dihydropyrido[2,3-d]pyrimidin-4(1H)-one]
≤ 0.1	Cc1[nH]c(=O)ccc1N1CN(c2ccc(F)cc2C(C)C)c2ccc(C(F)(F)F)cc2C1=O [Example 178, 1-(4-fluoro-2-isopropylphenyl)-3-(2-methyl-6-oxo-1,6-dihydropyridin-3-yl)-6-(trifluoromethyl)-2,3-dihydroquinazolin-4(1H)-one]
